Data: US4231928A, “Antibacterial agents” (priority 1979, dated 1980)
Read-outs that look alike come from different tables or passages of the source.

Assays:
[1] = system: S. aureus; experiment: Serial twofold agar dilution (Mueller-Hinton agar), S. aureus; type: cell-based; conditions: Staphylococcus aureus
Method: (§1) The Minimum Inhibitory Concentrations (MIC) for sodium 6-[D-(-)-α-phenyl-α-(7-hydroxy-4-oxo-4H-pyrimido[1,2-b]pyridazin-3-ylcarboxamido)acetamido]penicillanate (BB-P598) and sulbenicillin were determined by the serial twofold agar dilution method using Steers' apparatus on Mueller-Hinton agar plates against 31 test organisms for the primary screening (Table 1) and also against 61 strains of Pseudomonas aeruginosa for the secondary evaluation (Table 2).
(§2) Minimum Inhibitory Concentrations (MIC) for sodium 6-[D-(-)-α-phenyl-α-(7-hydroxy-4-oxo-4H-pyrimido[1,2-b]pyridazin-3-ylcarboxamido)acetamido]pencillanate (BB-P598), sodium 6-[D-(-)-α-(4-hydroxyphenyl)-α-(7-hydroxy-4-oxo-4H-pyrimido[1,2-b]pyridazin-3-ylcarboxamido)acetamido]-penicillanate (BB-P642) and carbenicillin were determined by the serial twofold agar dilution method using Steers' apparatus on Mueller-Hinton agar plates against 31 tests organisms (Table 8) and also against 61 strains of Pseudomonas aeruginosa (Table 9). In terms of mean % relative activity compared with carbenicillin, compounds BB-B598 and BB-P642 were 856% and 1319% as active as carbenicillin against the 61 Pseudomonas strains of Table 9.

[2] = system: E. coli; experiment: Serial twofold agar dilution (Mueller-Hinton agar), E. coli; type: cell-based; conditions: Escherichia coli
Method: as §1, §2

[3] = system: K. pneumoniae; experiment: Serial twofold agar dilution (Mueller-Hinton agar), K. pneumoniae; type: cell-based; conditions: Klebsiella pneumoniae, K. pneumoniae A9977, Table 8, read-out: MIC
Method: as §1, §2

[4] = system: Klebsiella sp.; experiment: Serial twofold agar dilution (Mueller-Hinton agar), Klebsiella sp.; type: cell-based; conditions: Klebsiella sp. A20452, Mueller-Hinton agar, Table 8, read-out: MIC
Method: as §1, §2

[5] = system: E. cloacae; experiment: Serial twofold agar dilution (Mueller-Hinton agar), E. cloacae; type: cell-based; conditions: Enterobacter cloacae
Method: as §1, §2

[6] = system: P. mirabilis; experiment: Serial twofold agar dilution (Mueller-Hinton agar), P. mirabilis; type: cell-based; conditions: Proteus mirabilis
Method: as §1, §2

[7] = system: P. vulgaris; experiment: Serial twofold agar dilution (Mueller-Hinton agar), P. vulgaris; type: cell-based; conditions: Proteus vulgaris, P. vulgaris A9539, Table 8, read-out: MIC
Method: as §1, §2

[8] = system: P. morganii; experiment: Serial twofold agar dilution (Mueller-Hinton agar), P. morganii; type: cell-based; conditions: Morganella morganii, P. morganii A9553, Table 8, read-out: MIC
Method: as §1, §2

[9] = system: S. enteritidis; experiment: Serial twofold agar dilution (Mueller-Hinton agar), S. enteritidis; type: cell-based; conditions: Salmonella enterica, S. enteritidis A9531, Table 8, read-out: MIC
Method: as §1, §2

[10] = system: S. marcescens; experiment: Serial twofold agar dilution (Mueller-Hinton agar), S. marcescens; type: cell-based; conditions: Serratia marcescens, S. marcescens A20019, Table 8
Method: as §1, §2

[11] = system: Pseudomonas aeruginosa; experiment: Serial twofold agar dilution (Mueller-Hinton agar), P. aeruginosa; type: cell-based; conditions: for MIC: Pseudomonas aeruginosa
Method: as §1, §2

[12] = system: Pseudomonas sp.; experiment: Serial twofold agar dilution (Mueller-Hinton agar), Pseudomonas sp.; type: cell-based; conditions: Pseudomonas sp. A20358, Table 8, read-out: MIC
Method: as §1, §2

[13] = Mouse blood levels after subcutaneous administration; conditions: in vivo, sc, 20 mg/kg
Method: Mouse blood levels of BB-[…] and BB-[…] were determined by subcutaneous administration of 20 mg/kg of the penicillin to groups of three mice. Blood samples collected from orbital sinuses were assayed by the paper disk agar-diffusion method on Sarcina lutea PC1 1001 plates.

CC1(C)S[C@@H]2[C@H](NC(=O)[C@H](NC(=O)c3cnc4ccc(O)nn4c3=O)c3ccc(O)cc3)C(=O)N2[C@H]1C(=O)O [BB-P642, Sodium 6-[D-(-)-α-(4-hydroxyphenyl)-α-(7-hydroxy-4-oxo-4H-pyrimido[1,2-b]pyridazin-3-ylcarboxamido)acetamido]-penicillanate]
MIC ([1]; S. aureus A15097, Table 8, read-out: MIC): > 100 µg/mL
MIC ([1]; S. aureus A20239, Table 8, read-out: MIC): 25 µg/mL
MIC ([1]; S. aureus A20240, Table 8, read-out: MIC): 12.5 µg/mL
MIC ([1]; S. aureus A20701, Table 8, read-out: MIC): > 100 µg/mL
MIC ([1]; S. aureus BX-1633 A9606, Table 8, read-out: MIC): 25 µg/mL
MIC ([1]; S. aureus Smith A9537, Table 8, read-out: MIC): 3.1 µg/mL
MIC ([2]; E. coli A9635, Table 8, read-out: MIC): 12.5 µg/mL
MIC ([2]; E. coli A9844, Table 8, read-out: MIC): 3.1 µg/mL
MIC ([2]; E. coli A20366, Table 8, read-out: MIC): > 100 µg/mL
MIC ([2]; E. coli A20520, Table 8, read-out: MIC): 6.3 µg/mL
MIC ([2]; E. coli A20664, Table 8, read-out: MIC): 1.6 µg/mL
MIC ([2]; E. coli A20732, Table 8, read-out: MIC): 100 µg/mL
MIC ([2]; E. coli A20898, Table 8, read-out: MIC): > 100 µg/mL
MIC ([2]; E. coli Juhl A15119, Table 8, read-out: MIC): 6.3 µg/mL
MIC ([2]; E. coli NIHJ, Table 8, read-out: MIC): 3.1 µg/mL
MIC [3]: 6.3 µg/mL
MIC [4]: 12.5 µg/mL
MIC ([5]; E. cloacae A9656, Table 8): 25 µg/mL
MIC ([5]; E. cloacae A9657, Table 8): 100 µg/mL
MIC ([5]; E. cloacae A9659, Table 8): 25 µg/mL
MIC [6]: 3.1 µg/mL
MIC [7]: 50 µg/mL
MIC [8]: > 100 µg/mL
MIC [9]: 3.1 µg/mL
MIC [10]: > 100 µg/mL
Mean % relative activity compared with carbenicillin ([11]; 61 strains of P. aeruginosa, Table 9): 1319%
MIC ([11]; 61 strains of P. aeruginosa, Table 9, read-out: Geometric mean of MIC): 2.27 µg/mL
MIC ([11]; A20229, Mueller-Hinton agar, Table 8, read-out: MIC): 0.4 µg/mL
MIC ([11]; ATCC19660, Pa-14 ATCC 19660 A20325, Mueller-Hinton agar, Table 9, read-out: MIC): 1.6 µg/mL
MIC ([11]; GN315, Pa-27 GN315 A21294, Mueller-Hinton agar, Table 9, read-out: MIC): 0.8 µg/mL
MIC ([11]; GN4925, Pa-45 GN 4925, Mueller-Hinton agar, Table 9, read-out: MIC): 3.1 µg/mL
MIC ([11]; P. aeruginosa A9843, Mueller-Hinton agar, Table 8, read-out: MIC): 1.6 µg/mL
MIC ([11]; P. aeruginosa A9930, Mueller-Hinton agar, Table 8, read-out: MIC): 1.6 µg/mL
MIC ([11]; P. aeruginosa A15150, Mueller-Hinton agar, Table 8, read-out: MIC): 0.8 µg/mL
MIC ([11]; P. aeruginosa A20717, Mueller-Hinton agar, Table 8, read-out: MIC): 3.1 µg/mL
MIC ([11]; Pa-2 V.A A9923, Mueller-Hinton agar, Table 9, read-out: MIC): 1.6 µg/mL
MIC ([11]; Pa-3 1449 V.A A9930, Mueller-Hinton agar, Table 9, read-out: MIC): 1.6 µg/mL
MIC ([11]; Pa-4 H9, D113 A21295, Mueller-Hinton agar, Table 9, read-out: MIC): 3.1 µg/mL
MIC ([11]; Pa-5 M4865, K.C A15150, Mueller-Hinton agar, Table 9, read-out: MIC): 1.6 µg/mL
MIC ([11]; Pa-6 No. 5 Levitan A15194, Mueller-Hinton agar, Table 9, read-out: MIC): 12.5 µg/mL
MIC ([11]; Pa-10 A21479, Mueller-Hinton agar, Table 9, read-out: MIC): > 100 µg/mL
MIC ([11]; Pa-11 A20616, Mueller-Hinton agar, Table 9, read-out: MIC): 1.6 µg/mL
MIC ([11]; Pa-12 A20653, Mueller-Hinton agar, Table 9, read-out: MIC): 1.6 µg/mL
MIC ([11]; Pa-15 A20717, Mueller-Hinton agar, Table 9, read-out: MIC): 6.3 µg/mL
MIC ([11]; Pa-16 #130 A20718, Mueller-Hinton agar, Table 9, read-out: MIC): 0.4 µg/mL
MIC ([11]; Pa-17 H6, D114, Mueller-Hinton agar, Table 9, read-out: MIC): 3.1 µg/mL
MIC ([11]; Pa-18 H8, D121, Mueller-Hinton agar, Table 9, read-out: MIC): 0.4 µg/mL
MIC ([11]; Pa-19 A20229, Mueller-Hinton agar, Table 9, read-out: MIC): 0.8 µg/mL
MIC ([11]; Pa-20 A20325, Mueller-Hinton agar, Table 9, read-out: MIC): 1.6 µg/mL
MIC ([11]; Pa-21 A20601, Mueller-Hinton agar, Table 9, read-out: MIC): 1.6 µg/mL
MIC ([11]; Pa-23 A20741, Mueller-Hinton agar, Table 9, read-out: MIC): 1.6 µg/mL
MIC ([11]; Pa-24 A20896, Mueller-Hinton agar, Table 9, read-out: MIC): > 100 µg/mL
MIC ([11]; Pa-25 A20897, Mueller-Hinton agar, Table 9, read-out: MIC): 1.6 µg/mL
MIC ([11]; Pa-26 PS32, Mueller-Hinton agar, Table 9, read-out: MIC): 12.5 µg/mL
MIC ([11]; Pa-28 C.P.H. 10527/72, Mueller-Hinton agar, Table 9, read-out: MIC): 1.6 µg/mL
MIC ([11]; Pa-29 D122, Mueller-Hinton agar, Table 9, read-out: MIC): 1.6 µg/mL
MIC ([11]; Pa-30 A20600, Mueller-Hinton agar, Table 9, read-out: MIC): 1.6 µg/mL
MIC ([11]; Pa-31 A20594, Mueller-Hinton agar, Table 9, read-out: MIC): 0.4 µg/mL
MIC ([11]; Pa-32 A20595, Mueller-Hinton agar, Table 9, read-out: MIC): 1.6 µg/mL
MIC ([11]; Pa-33 A20598, Mueller-Hinton agar, Table 9, read-out: MIC): 0.8 µg/mL
MIC ([11]; Pa-34 A20603, Mueller-Hinton agar, Table 9, read-out: MIC): 0.8 µg/mL
MIC ([11]; Pa-36, Mueller-Hinton agar, Table 9, read-out: MIC): 0.8 µg/mL
MIC ([11]; Pa-37 A20130, Mueller-Hinton agar, Table 9, read-out: MIC): 1.6 µg/mL
MIC ([11]; Pa-38 A20349, Mueller-Hinton agar, Table 9, read-out: MIC): 6.3 µg/mL
MIC ([11]; Pa-39 A20641, Mueller-Hinton agar, Table 9, read-out: MIC): 0.8 µg/mL
MIC ([11]; Pa-41 A21227, Mueller-Hinton agar, Table 9, read-out: MIC): 1.6 µg/mL
MIC ([11]; Pa-42 A21229, Mueller-Hinton agar, Table 9, read-out: MIC): 12.5 µg/mL
MIC ([11]; Pa-43 A21233, Mueller-Hinton agar, Table 9, read-out: MIC): 1.6 µg/mL
MIC ([11]; Pa-44 A21274, Mueller-Hinton agar, Table 9, read-out: MIC): 1.6 µg/mL
MIC ([11]; Pa-51 A9910, Mueller-Hinton agar, Table 9, read-out: MIC): 1.6 µg/mL
MIC ([11]; Pa-52 A9926, Mueller-Hinton agar, Table 9, read-out: MIC): 3.1 µg/mL
MIC ([11]; Pa-53 A20126, Mueller-Hinton agar, Table 9, read-out: MIC): 1.6 µg/mL
MIC ([11]; Pa-54 A20128, Mueller-Hinton agar, Table 9, read-out: MIC): 3.1 µg/mL
MIC ([11]; Pa-55 A20227, Mueller-Hinton agar, Table 9, read-out: MIC): 3.1 µg/mL
MIC ([11]; Pa-56 A20228, Mueller-Hinton agar, Table 9, read-out: MIC): 1.6 µg/mL
MIC ([11]; Pa-57 A20546, Mueller-Hinton agar, Table 9, read-out: MIC): 1.6 µg/mL
MIC ([11]; Pa-58 A20557, Mueller-Hinton agar, Table 9, read-out: MIC): 3.1 µg/mL
MIC ([11]; Pa-59 A20574, Mueller-Hinton agar, Table 9, read-out: MIC): 0.8 µg/mL
MIC ([11]; Pa-60 A20602, Mueller-Hinton agar, Table 9, read-out: MIC): 1.6 µg/mL
MIC ([11]; Pa-61 A20726, Mueller-Hinton agar, Table 9, read-out: MIC): 3.1 µg/mL
MIC ([11]; Pa-62 A21213, Mueller-Hinton agar, Table 9, read-out: MIC): > 100 µg/mL
MIC ([11]; Pa-64 A21336, Mueller-Hinton agar, Table 9, read-out: MIC): 0.8 µg/mL
MIC ([11]; Pa-65 A21428, Mueller-Hinton agar, Table 9, read-out: MIC): 1.6 µg/mL
MIC ([11]; Pa-66 A21434, Mueller-Hinton agar, Table 9, read-out: MIC): 3.1 µg/mL
MIC ([11]; Pa-67 A21509, Mueller-Hinton agar, Table 9, read-out: MIC): 3.1 µg/mL
MIC ([11]; Pa-68 A21510, Mueller-Hinton agar, Table 9, read-out: MIC): 3.1 µg/mL
MIC ([11]; Pa-69 A21587, Mueller-Hinton agar, Table 9, read-out: MIC): 3.1 µg/mL
MIC ([11]; Pa-70 K-PS102 (KR-102), Mueller-Hinton agar, Table 9, read-out: MIC): 1.6 µg/mL
MIC [12]: 0.4 µg/mL
concentration at 0.25 h [13]: 18000 ng/mL
concentration at 0.5 h [13]: 13500 ng/mL
concentration at 1 h [13]: 5200 ng/mL
